Laboratory results: patent US20240228501A1, “IMIDAZOLE-CONTAINING CONDENSED RING DERIVATIVE, PREPARATION METHOD THEREFOR, AND APPLICATION THEREOF IN MEDICINE” (CHANGCHUN GENESCIENCE PHARMACEUTICAL CO., LTD., priority 2021, published 2024)

These compounds were tested against T1, human NK-3 receptor (Homo sapiens, UniProt P29371) (assay: Antagonistic activity on human NK-3 receptor in human NK-3R/HEK293 stably transfected cells (Fluo-4, FLIPR, Neurokinin B as agonist)). Conditions: human NK-3R/HEK293 cells.
T1 construct: expressed in transfected cells; host or cells: HEK293
T1 sequence (P29371 1-465): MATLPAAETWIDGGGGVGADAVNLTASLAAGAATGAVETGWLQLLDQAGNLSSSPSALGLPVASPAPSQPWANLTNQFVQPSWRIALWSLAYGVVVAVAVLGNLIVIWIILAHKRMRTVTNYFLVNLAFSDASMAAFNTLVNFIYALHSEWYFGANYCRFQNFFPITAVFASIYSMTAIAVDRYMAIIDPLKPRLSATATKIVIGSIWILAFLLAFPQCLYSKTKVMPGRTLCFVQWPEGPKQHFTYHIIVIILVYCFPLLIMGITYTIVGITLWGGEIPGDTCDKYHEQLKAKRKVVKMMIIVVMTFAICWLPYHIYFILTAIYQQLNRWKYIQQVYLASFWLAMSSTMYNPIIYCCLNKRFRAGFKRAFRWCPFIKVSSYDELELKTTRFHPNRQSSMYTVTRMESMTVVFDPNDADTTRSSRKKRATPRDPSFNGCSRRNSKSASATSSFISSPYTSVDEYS
Type: cell-based
Description: Test Example 1: Determination of Activity of Compounds of the Present Invention on Human NK-3 Receptor
This method is used to determine antagonistic effects of the compounds of the present invention on the activity of human NK-3 receptor proteins expressed in cell lines stably transfected with human NK-3R/HEK293.
2.1 The cell lines stably transfected with human NK-3R/HEK293 were inoculated in a 384-well cell culture plate at a inoculation density of 12,000 cells/well/25 μL, and cultured at 37° C. and 5% CO2 overnight;
2.2 20× Component A was frozen and thawed to room temperature, diluted 2× with Assay Buffer to working concentration, and kept at room temperature for later use;
2.3 The cell culture plate was equilibrated at room temperature for 10 min, the culture medium was removed, and 20 μL of Assay Buffer and 20 μL of 2× Component A […] were added, followed by centrifugation at 200 g at room temperature for 3-5 sec, and incubation at 37° C. for 2 h;
2.4 The compound was diluted 3 times with DMSO in 384 PP_DMSO plate, and then 240 nl/well of the compound was transferred into a working plate with Echo 550, centrifugated at 200 g at room temperature for 1 min; 40 μl of Assay Buffer was added into the working plate, centrifugated at 200 g at room temperature for 1 min, and then fully mixed in an oscillator at 2500 rpm for 20 min, and then centrifugated at 200 g at room temperature for 1 min for later use;
2.5 2.5 nM Neurokinin B TFA (6×) was prepared from Assay Buffer, 50 uL of which was transferred onto 3657 plate for later use;
2.6 The cell culture plate was taken out and left to stand at room temperature for 10 min, then […] the compound diluted in step 2.4 was added into corresponding wells, and the cell culture plate was left to stand at 25° C. for 30 min; and
2.7 10 μL of the compound diluted in step 2.5 was added into the corresponding experimental wells with FLIPR Tetra, and data was collected.
The antagonistic activity of the compounds of the present invention on the human NK-3 receptor was determined through the above experiments, to obtain inhibition curves of the compounds of the present invention and determine concentrations (IC50) of the corresponding compounds that inhibit 50% of the reference agonist.

Row | Structure (SMILES) | IC50 [nM]
1 | Cc1nsc(-c2nc(N3CCCC3=O)c3n2CCN(C(=O)c2cc(F)c(F)c(F)c2)[C@@H]3C)n1 [Compound 220, (R)-1-(8-methyl-3-(3-methyl-1,2,4-thiadiazol-5-yl)-7-(3,4,5-trifluorobenzoyl)-5,6,7,8-tetrahydroimidazo[1,5-a]pyrazin-1-yl)pyrrolidin-2-one] | 28
2 | COCC(=O)Nc1nc(-c2nc(C)ns2)n2c1[C@@H](C)N(C(=O)c1ccc(F)cc1)CC2 [Compound 089, (R)—N-(7-(4-fluorobenzoyl)-8-methyl-3-(3-methyl-1,2,4-thiadiazol-5-yl)-5,6,7,8-tetrahydroimidazo[1,5-a]pyrazin-1-yl)-2-methoxyacetamide] | 58.6
3 | Cc1nsc(-c2nc(-c3ccnnc3)c3n2CCN(C(=O)c2ccc(F)cc2)[C@@H]3C)n1 [Compound 028, (R)-(4-fluorophenyl)(8-methyl-3-(3-methyl-1,2,4-thiadiazol-5-yl)-1-(pyridazin-4-yl)-5,6-dihydroimidazo[1,5-a]pyrazin-7 (8H)-yl)methanone] | 56.3
4 | Cc1nsc(-c2nc(-c3ccncn3)c3n2CCN(C(=O)c2ccc(F)cc2)[C@@H]3C)n1 [Compound 027, (R)-(4-fluorophenyl)(8-methyl-3-(3-methyl-1,2,4-thiadiazol-5-yl)-1-(pyrimidin-4-yl)-5,6-dihydroimidazo[1,5-a]pyrazin-7 (8H)-yl)methanone] | 29.7
5 | CO[C@@H]1CC(=O)N(c2nc(-c3nc(C)ns3)n3c2[C@@H](C)N(C(=O)c2ccc(F)cc2)CC3)C1 [Compound 115, (R)-1-[(R)-7-(4-fluorobenzoyl)-8-methyl-3-(3-methyl-1,2,4-thiadiazol-5-yl)-5,6,7,8-tetrahydroimidazo[1,5-a]pyrazin-1-yl]-4-methoxypyrrolidin-2-one] | 22.7
6 | Cc1nsc(-c2nc(-c3ccncc3)c3n2CCN(C(=O)c2ccc(F)cc2)[C@@H]3C)n1 [Compound 026, (R)-(4-fluorophenyl)(8-methyl-3-(3-methyl-1,2,4-thiadiazol-5-yl)-1-(pyridin-4-yl)-5,6-dihydroimidazo[1,5-a]pyrazin-7 (8H)-yl)methanone] | 35
7 | Cc1nsc(-c2nc([C@H]3CCCC3=O)c3n2CCN(C(=O)c2ccc(F)cc2)[C@@H]3C)n1 [Compound 211, (R)-2-((R)-7-(4-fluorobenzoyl)-8-methyl-3-(3-methyl-1,2,4-thiadiazol-5-yl)-5,6,7,8-tetrahydroimidazo[1,5-a]pyrazin-1-yl)cyclopentan-1-one] | 284
8 | CC(=O)O[C@@H]1CC(=O)N(c2nc(-c3nc(C)ns3)n3c2[C@@H](C)N(C(=O)c2ccc(F)cc2)CC3)C1 [Compound 133, (R)-1-[(R)-7-(4-fluorobenzoyl)-8-methyl-3-(3-methyl-1,2,4-thiadiazol-5-yl)-5,6,7,8-tetrahydroimidazo[1,5-a]pyrazin-1-yl]-5-oxopyrrolidin-3-ylacetate] | 18.6
9 | Cc1nsc(-c2nc(N3CCN(C)CC3=O)c3n2CCN(C(=O)c2ccc(F)cc2)[C@@H]3C)n1 [Compound 084] | 23.7
10 | C[C@@H]1c2c(N3C[C@H](O)CC3=O)nc(-c3nc(C(F)(F)F)cs3)n2CCN1C(=O)c1ccc(F)cc1 [Compound 120, (R)-1-((R)-7-(4-fluorobenzoyl)-8-methyl-3-(4-(trifluoromethyl)thiazol-2-yl)-5,6,7,8-tetrahydroimidazo[1,5-a]pyrazin-1-yl)-4-hydroxypyrrolidin-2-one] | 18.8
11 | Cc1nsc(-c2nc(N3CCCCC3=O)c3n2CCN(C(=O)c2ccc(F)cc2)[C@@H]3C)n1 [Compound 069, (R)-1-(7-(4-fluorobenzoyl)-8-methyl-3-(3-methyl-1,2,4-thiadiazol-5-yl)-5,6,7,8-tetrahydroimidazo[1,5-a]pyrazin-1-yl)piperidin-2-one] | 7.43

Other lines, results leading:

Row | IC50 [nM] | Structure (SMILES)
12 | 64.6 | Cc1nsc(-c2nc(-c3ccncc3)c3n2CCN(C(=O)c2ccc(F)cc2)C3C)n1 (stereo not shown) [Compound 005, (4-fluorophenyl)(8-methyl-3-(3-methyl-1,2,4-thiadiazol-5-yl)-1-(pyridin-4-yl)-5,6-dihydroimidazo[1,5-a]pyrazin-7 (8H)-yl)methanone]
13 | 88.1 | C[C@@H]1c2c(N3CCCC3=O)nc(-c3nc([C@@H](C)F)ns3)n2CCN1C(=O)c1ccc(F)cc1 [Compound 186, 1-((R)-7-(4-fluorobenzoyl)-3-(3-((R)-1-fluoroethyl)-1,2,4-thiadiazol-5-yl)-8-methyl-5,6,7,8-tetrahydroimidazo[1,5-a]pyrazin-1-yl)pyrrolidin-2-one]
14 | 33.4 | CC(=O)N(C)c1nc(-c2nc(C)ns2)n2c1C(C)N(C(=O)c1ccc(F)cc1)CC2 (stereo not shown) [Compound 010, N-(7-(4-fluorobenzoyl)-8-methyl-3-(3-methyl-1,2,4-thiadiazol-5-yl)-5,6,7,8-tetrahydroimidazo[1,5-a]pyrazin-1-yl)-N-methylacetamide]
15 | 80.1 | Cc1nsc(-c2nc(N(C)S(C)(=O)=O)c3n2CCN(C(=O)c2ccc(F)cc2)[C@@H]3C)n1 [Compound 064, (R)—N-(7-(4-fluorobenzoyl)-8-methyl-3-(3-methyl-1,2,4-thiadiazol-5-yl)-5,6,7,8-tetrahydroimidazo[1,5-a]pyrazin-1-yl)-N-methylmethanesulfonamide]
16 | 5.7 | Cc1nsc(-c2nc(N3C[C@H](O)CC3=O)c3n2CCN(C(=O)c2ccc(F)cc2)[C@@H]3C)n1 [Compound 103, (R)-1-((R)-7-(4-fluorobenzoyl)-8-methyl-3-(3-methyl-1,2,4-thiadiazol-5-yl)-5,6,7,8-tetrahydroimidazo[1,5-a]pyrazin-1-yl)-4-hydroxypyrrolidin-2-one]
17 | 109 | COCCc1nc(-c2nc(C)ns2)n2c1C(C)N(C(=O)c1ccc(F)cc1)CC2 (racemic) [Compound 204, rac-(R)-(4-fluorophenyl)(1-(2-methoxyethyl)-8-methyl-3-(3-methyl-1,2,4-thiadiazol-5-yl)-5,6-dihydroimidazo[1,5-a]pyrazin-7 (8H)-yl)methanone]
18 | 46.5 | C[C@@H]1c2c(N3CCCC3=O)nc(-c3nc(CF)ns3)n2CCN1C(=O)c1ccc(F)cc1 [Compound 184, (R)-1-(7-(4-fluorobenzoyl)-3-(3-(fluoromethyl)-1,2,4-thiadiazol-5-yl)-8-methyl-5,6,7,8-tetrahydroimidazo[1,5-a]pyrazin-1-yl)pyrrolidin-2-one]
19 | 246 | CC(=O)Cc1nc(-c2nc(C)ns2)n2c1[C@@H](C)N(C(=O)c1ccc(F)cc1)CC2 [Compound 214, (R)-1-(7-(4-fluorobenzoyl)-8-methyl-3-(3-methyl-1,2,4-thiadiazol-5-yl)-5,6,7,8-tetrahydroimidazo[1,5-a]pyrazin-1-yl)propan-2-one]
